Reference: patent publication US20130059096A1, “METHODS AND COATINGS FOR TREATING BIOFILMS” (President and Fellows of Harvard College, priority 2010, published 2013)

Columns and labels:
[1] = test system: Bacillus subtilis NCIB3610; assay: Pellicle (biofilm) formation in liquid biofilm-inducing medium; assay type: cell-based
Method: Colony and pellicle formation. For colony formation on solid medium, cells were first grown to exponential growth phase in LB broth and 3 μl of culture were spotted onto solid MSgg medium containing 1.5% Bacto agar. The plates were incubated at 23° C. For pellicle formation in liquid medium, cells were grown to exponential phase and 6 μl of culture were mixed with 6 ml of medium in a 12-well plate (VWR). Plates were incubated at 23° C. Images of colonies and pellicles were taken using a SPOT camera (Diagnostic Instruments, USA).
Preparing conditioned medium. Cells were grown in LB medium to exponential phase. 0.1 ml of culture was added to 100 ml of MSgg medium and grown without shaking in a 500 ml beaker at 23° C. Next, pellicles and conditioned medium was collected by centrifugation at 8,000 rpm for 15 min. The conditioned medium (supernatant fluid) was removed and filtered through a 0.22 μm filter. The filtrates were stored at 4° C. For further purification the biofilm-inhibiting activity was fractionated on a C-18 Sep Pak cartridge using stepwise elution of 0% to 100% methanol with steps of 5%.
To investigate whether mature biofilms produce a factor that triggers biofilm disassembly, the effect of concentrated and partially purified extracts of conditioned medium on pellicle formation when added to fresh medium was assayed. To this end, conditioned medium from an eight-day-old culture was applied to a C18 Sep Pak column. Concentrated eluate from the column was then added to a freshly inoculated culture. […] Further purification of the factor was achieved by eluting the cartridge in step-wise fashion with increasing concentrations of methanol.
Next, the minimum concentration (MIC for Minimal Inhibitory Concentration) needed to prevent biofilm formation was determined.

Bacillus subtilis = assay: Cell growth in MSgg medium with shaking; assay type: cell-based; conditions: 3 μM
TasA-mCherry = assay type: cell-based, Bacillus subtilis; conditions: 6 μM
Method: Fluorescence microscopy. For fluorescence microscopy analysis, 1 ml of culture was harvested. The cells were washed with PBS buffer and suspended in 50 μl of PBS buffer. Cover slides were pretreated with poly L-lysine (Sigma). Samples were examined using an Olympus workstation BX61 microscope. Images were taken using the automated software program SimplePCI and analyzed with program MetaMorph (Universal Imaging Corporation).
The cells were grown to stationary phase with shaking in biofilm-inducing medium in the presence or absence of D-tyrosine (6 μM). […] In contrast, when the cells were washed by centrifugation, resuspended and then examined by fluorescence microscopy, untreated cells (which were often in clumps) were seen to be intensely decorated with TasA-mCherry. […] The localization of unmodified TasA protein was also analyzed by transmission electron microscopy using gold-labeled anti-TasA antibodies. […] 24-hour-old cultures were incubated without (images 1 and 2) or with (images 3-6) D-tyrosine (0.1 mM) for an additional 12 hours. TasA fibers were stained by immunogold labeling using anti-TasA antibodies, and visualized by transmission electron microscopy as described in the Examples. […] Filled arrows indicate fiber bundles; open arrows indicate individual fibers. The scale bar is 500 nm. The scale bar in the enlargements of images 2, 4 and 6 is 100 nm. […]

TasA fibers = assay: Cell association of TasA fibers by immunogold transmission electron microscopy; assay type: cell-based, Bacillus subtilis; conditions: 0.1 mM, 24-hour-old Δeps cultures treated for 12 hours
Method: Transmission electron microscopy and immunolabeling. Samples were diluted with distilled water and adsorbed onto a carbon or formvar/carbon coated grid. The grid surface was made hydrophilic prior to use with glow discharge in a vacuum evaporator. Once the specimen was adsorbed onto the film surface, the excess sample was blotted off on a filter paper (Whatman #1) and the grid was floated on 5 μl of stain solution (1-2% aqueous uranyl acetate) for a few minutes and then blotted off. The samples were dried and examined in a Tecnai™ G^2 Spirit BioTWIN microscope at an accelerating voltage of 80 KV. Images were taken with an AMT 2k CCD camera. […]
The cells were grown to stationary phase with shaking in biofilm-inducing medium in the presence or absence of D-tyrosine (6 μM). […] In contrast, when the cells were washed by centrifugation, resuspended and then examined by fluorescence microscopy, untreated cells (which were often in clumps) were seen to be intensely decorated with TasA-mCherry. […] The localization of unmodified TasA protein was also analyzed by transmission electron microscopy using gold-labeled anti-TasA antibodies. […]

In the case of `N[C@H](Cc1ccc(O)cc1)C(=O)O` [D-tyrosine], the “Effect on pellicle formation (FIG. 2A)” value ([1]; 3 μM, freshly inoculated culture, biofilm-inducing medium, 3 days) is reported as “significant inhibition of biofilm growth”, the “minimum concentration (MIC / MBIC) needed to prevent biofilm formation” value ([1]; FIG. 2B, complete inhibition of pellicle formation, mixture in equimolar amounts) is reported as “about 100 nM” and the “Biofilm-inhibition assay for B. subtilis” value ([1]; summary statement, concentration not given) is reported as “significant inhibition of biofilm growth”. For the same molecule, the “Cell growth (FIG. 8)” value (Bacillus subtilis) was “substantially the same as the untreated sample”, the “total accumulation of TasA-mCherry (FIG. 3B)” value (TasA-mCherry; grown to stationary phase with shaking) was “little or no effect” and the “Cell decoration with TasA-mCherry, fluorescence microscopy of washed cells” value (TasA-mCherry; grown to stationary phase, washed and resuspended) was “only low levels of fluorescence”. The “Cell association of TasA fibers (FIG. 3D)” value (TasA fibers) was “largely undecorated with TasA fibers”.
